pIC50: −log10 of the molar value. Counter-ions that a name gives are not always drawn. A value given as a limit tells only on which side of the number the result lay.

The target of test [1] is AD brain-derived tau seeds (Homo sapiens, UniProt P10636, C639S). Briefly: biochemical. The format is biochemical. The note with it: for percent inhibition (vehicle AUC 100% minus percent AUC of compound): 100 µM; for inhibition at 100 µM: read-out: percent inhibition (vehicle AUC 100% minus percent AUC of compound).
Sequence of AD brain-derived tau seeds (P10636 1-352 isoform P10636-2 C233S): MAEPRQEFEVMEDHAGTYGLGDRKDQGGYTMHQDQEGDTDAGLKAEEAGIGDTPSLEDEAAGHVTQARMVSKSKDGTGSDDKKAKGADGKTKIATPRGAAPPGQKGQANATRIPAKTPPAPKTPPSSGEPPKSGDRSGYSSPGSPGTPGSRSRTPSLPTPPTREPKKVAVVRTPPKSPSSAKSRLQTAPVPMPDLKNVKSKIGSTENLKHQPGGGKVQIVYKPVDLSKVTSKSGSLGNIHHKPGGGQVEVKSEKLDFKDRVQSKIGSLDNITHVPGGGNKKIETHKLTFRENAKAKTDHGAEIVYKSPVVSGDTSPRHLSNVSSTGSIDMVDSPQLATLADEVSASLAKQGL
In test [2] the target is tau (Homo sapiens, UniProt P10636, C639S). Briefly: Transmission electron microscopy of Tau-SAA end products. The format is biochemical. The following applies: SAA end products (total fraction) of 100 µM reactions.
Sequence of tau (P10636 1-352 isoform P10636-2 C233S): as above
For test [3] the following is noted: Phase III; cited from earlier work.
Test [4] has as its system tau oligomers. The following applies: mouse models; cited from earlier work.
In test [5] the test system is 2N4R. The note with it: cited from earlier work.
The subject of test [6] is hyperphosphorylated tau. The following applies: mouse, in vivo; cited from earlier work.
The conditions of test [7]: patients receiving the drug; cited from earlier work.
Test [8] has as its system tau peptides. The note with it: cited from earlier work.

On to `Oc1cc(O)c2c(c1)O[C@H](c1ccc(O)c(O)c1)[C@@H](O)C2` [(+)-catechin], for which the “percent inhibition (vehicle AUC 100% minus percent AUC of compound)” value in test [1] turned out to be 89%.

For the molecule `CN(C)c1ccc2nc3ccc(N)cc3[s+]c2c1.[Cl-]` [Azure A, azure A], in test [1], the “maximum thioflavin fluorescence (ThT Max)” value is listed as “approaching the baseline” and the “percent inhibition (vehicle AUC 100% minus percent AUC of compound)” value is greater than 95%.

By inhibition is commonly meant the drop in the measured response relative to a control, in per cent. Regarding `Nc1c(/N=N/c2ccc(-c3ccc(/N=N/c4cc(S(=O)(=O)O)c5ccccc5c4N)cc3)cc2)cc(S(=O)(=O)O)c2ccccc12` [Congo Red, Congo red], in test [1], the “maximum thioflavin fluorescence (ThT Max)” value was “approaching the baseline” and the inhibition at 100 µM is greater than 95%.

A word on the pIC50: it is −log10 of the IC50, conventionally taken in molar units. For `COc1cccc2c1C(=O)c1c(O)c3c(c(O)c1C2=O)C[C@@](O)(C(=O)CO)C[C@@H]3O[C@H]1C[C@H](N)[C@@H](O)[C@H](C)O1` [Epirubicin], in test [1], the pIC50 was 5.18 and the inhibition at 100 µM is greater than 99%.

For the molecule `O=C(c1cc(O)c(O)c(O)c1)c1ccc(O)c(O)c1O` [Exifone], in test [1], the negative-log IC50 (pIC50) is 4.95 and the inhibition at 100 µM is greater than 95%.

For the molecule `COc1ccc2c(c1)c(CC(=O)O)c(C)n2C(=O)c1ccc(Cl)cc1` [Indomethacin], the “aggregates seen by TEM” value in test [2] was “widespread amyloid-like aggregates”.

On to `CN(C)c1ccc2c(c1)Sc1cc(N(C)C)ccc1N2.CS(=O)(=O)O.CS(=O)(=O)O` [LMTX], for which, in test [3], the primary efficacy outcomes is “did not reach primary efficacy outcomes”.

As to `CN(C)c1ccc2nc3ccc(=[N+](C)C)cc-3sc2c1` [Methylene Blue], the inhibition at 100 µM in test [1] was greater than 99%.

As to `O=S(=O)(O)c1cc(S(=O)(=O)O)c2c(/N=N/c3ccccc3)c(O)ccc2c1` [Orange-G], the inhibition at 100 µM in test [1] was found to be 39%.

Take `CO[C@H]1/C=C/O[C@@]2(C)Oc3c(C)c(O)c4c(O)c(c(/C=N/N5CCN(C)CC5)c(O)c4c3C2=O)NC(=O)/C(C)=C\C=C\[C@H](C)[C@H](O)[C@@H](C)[C@@H](O)[C@@H](C)[C@H](OC(C)=O)[C@@H]1C` [Rifampin]: the “aggregates seen by TEM” value in test [2] is on record as “devoid of fibrillar amyloid structures”. The “spread of tau oligomers and cognitive function” value in test [4] was “limit the spread of tau oligomers and improve cognitive function”.

Take `CCN(CC)CCNC(=O)c1c(C)[nH]c(/C=C2\C(=O)Nc3ccc(F)cc32)c1C` [Sunitinib]: the inhibition at 100 µM in test [1] is 98.6%. In addition, the “aggregates seen by TEM” value in test [2] is listed as “widespread amyloid-like aggregates”.

Turning to `Nc1ccc2nc3ccc(N)cc3[s+]c2c1` [Thionin, thionin], in test [1], the “maximum thioflavin fluorescence (ThT Max)” value is “approaching the baseline” and the “percent inhibition (vehicle AUC 100% minus percent AUC of compound)” value is given as “over 99%”.

Consider `Brc1cccc(-c2cc(-c3ccc4c(c3)OCO4)[nH]n2)c1` [anle138b], for which the inhibition at 100 µM in test [1] was -25.9%. Besides, in test [5], the “inhibition of spontaneous 2N4R aggregate formation” value was “inhibits the in vitro formation of spontaneous 2N4R aggregates”. For the same molecule, the “hyperphosphorylated tau burden and survival” value in test [6] was “reduces hyperphosphorylated tau burden and prolongs survival”.

Take `CNc1ccc2nc3ccc(=[N+](C)C)cc-3sc2c1.[Cl-]` [azure B]: in test [1], the “percent inhibition (vehicle AUC 100% minus percent AUC of compound)” value is given as greater than 95%.

Turning to `CNc1ccc2nc3ccc(N)cc3[s+]c2c1` [azure C], in test [1], the inhibition at 100 µM was greater than 95%.

Take `O=c1cc(-c2ccccc2)oc2cc(O)c(O)c(O)c12` [baicalein]: the inhibition at 100 µM in test [1] was greater than 95%.

On to `COc1cc(/C=C/C(=O)CC(=O)/C=C/c2ccc(O)c(OC)c2)ccc1O` [curcumin], for which, in test [7], the cognitive outcome is “improvements in attention, long-term retrieval, and visual memory”; the “tau and Aβ burden by PET ligand binding” value was “decreased tau and Aβ burden”.

In the case of `C=CCc1ccc(O)c(-c2ccc(O)c(CC=C)c2)c1` [honokiol], the inhibition at 100 µM in test [1] came out at 94%.

As for `O=c1c(O)c(-c2cc(O)c(O)c(O)c2)oc2cc(O)cc(O)c12` [myricetin], the inhibition at 100 µM in test [1] is greater than 95%.

In the case of `CCN(CC)CCCC(C)Nc1c2ccc(Cl)cc2nc2ccc(OC)cc12` (stereo not drawn) [quinacrine hydrochloride], in test [1], the “maximum thioflavin fluorescence (ThT Max)” value is reported as “reduced ThT Max across all dilutions” and the “time to threshold (TTT)” value was “only delay TTT at higher dilutions”.

Regarding `O=C(/C=C/c1ccc(O)c(O)c1)O[C@H](Cc1ccc(O)c(O)c1)C(=O)O` [rosmarinic acid], the inhibition at 100 µM in test [1] is greater than 95%.

`Cc1ccc(C(=O)c2cc(O)c(O)c([N+](=O)[O-])c2)cc1` [tolcapone]: the inhibition at 100 µM in test [1] came out at 78%.

Turning to `CC[C@@]1(O)C(=O)OCc2c1cc1n(c2=O)Cc2cc3c(CN(C)C)c(O)ccc3nc2-1` [topotecan], in test [1], the inhibition at 100 µM is 92%. In test [8], the “inhibition of fibrillization of tau peptides” value is on record as “only mildly inhibited”.

Regarding `CC(=O)c1c(O)c(C)c(O)c2c1OC1=CC(=O)C(C(C)=O)C(=O)C12C` (stereo not drawn) [usnic acid], the inhibition at 100 µM in test [1] came out at 21.5%.

The record behind these values is article PMC12482674 (Alzheimer's Research & Therapy, 2025).
